{"source": "ChEMBL document CHEMBL1151295", "about": "“11-Methoxy-macusine A. A new quaternary alkaloid from Strychnos angolensis” (1983)", "assay": "Muscle relaxant activity in rat diaphragm assessed as inhibition of electrically-stimulated contraction", "type": "functional"}
{"smiles": "C/C=C1/C[N+]2(C)[C@H]3C[C@@H]1[C@@](CO)(C(=O)OC)[C@@H]2Cc1c3[nH]c2cc(OC)ccc12", "note": "[11-METHOXY MACUSINE A]", "values": [{"measurement": "Activity", "result": 0.16, "unit": "mg/kg"}]}
